Experimental data taken from US11690810B2, “Combination treatment of bacterial infection” (The Chinese University of Hong Kong, priority 2018, dated 2023).
Several values for one entry are separate records, joined by “and”; a condition that tells them apart may be missing. Equal values may be shown once.

Legend:
Assay in all cases: MIC and checkerboard (FIC) assay
CA MRSA W48 = settings: W48
CA MRSA W106 = settings: W106
CA MRSA W101 = settings: W101
CA MRSA W113 = settings: W113
CA MRSA W45 = settings: W45
HA MRSA W232 = settings: W232
HA MRSA W235 = settings: W235
HA MRSA W238 = test system: HA MRSA W238
HA MRSA W233 = test system: HA MRSA W233
CA MRSA W47 = settings: W47
MRSA SA-ST239 = settings: ST239
[1] = test system: clinical fusidic acid resistant MRSA strain 73621; assay type: cell-based, Staphylococcus aureus; settings: for FIC / MIC combine: 73621
[2] = test system: S. aureus SA-ANT4′ (ANT4), resistant to fusidic acid; settings: for FIC / MIC combine: ANT4
CA MRSA W103 = settings: W103
[3] = test system: clinical fusidic acid resistant MRSA strain 96591; assay type: cell-based, Staphylococcus aureus; settings: for FIC / MIC combine: 96591
[4] = test system: S. aureus SA-APH2″-AAC6′ (APH2), resistant to gentamicin; settings: for FIC / MIC combine: APH2
HA MRSA W239 = settings: W239
CA MRSA W44 = settings: W44

## C=C(C)[C@H](CC=C(C)C)Cc1c(O)cc(OC)c(C(=O)/C=C/c2ccc(O)cc2O)c1O [Kuraridin]
CA MRSA W48
  MIC alone: 8 µg/mL
CA MRSA W48; ECG with Kur
  FIC: 0.5
  MIC combine: 4 µg/mL
CA MRSA W48; ECG+Kur+Van
  FIC: 0.25
  MIC combine: 2 µg/mL
CA MRSA W48; Table 5
  MIC alone: 8 µg/mL
CA MRSA W106
  MIC alone: 8 µg/mL
CA MRSA W106; ECG with Kur
  FIC: 0.25
  MIC combine: 2 µg/mL
CA MRSA W101
  MIC alone: 8 µg/mL
CA MRSA W101; ECG with Kur
  FIC: 0.5
  MIC combine: 4 µg/mL
CA MRSA W113
  MIC alone: 8 µg/mL
CA MRSA W113; ECG with Kur
  FIC: 0.5
  MIC combine: 4 µg/mL
CA MRSA W45
  MIC alone: 8 µg/mL
CA MRSA W45; ECG with Kur
  FIC: 0.5
  MIC combine: 4 µg/mL
CA MRSA W45; ECG+Kur+Van
  FIC: 0.25
  MIC combine: 2 µg/mL
CA MRSA W45; Table 5
  MIC alone: 8 µg/mL
HA MRSA W232
  MIC alone: 8 µg/mL
HA MRSA W232; ECG with Kur
  FIC: 0.25
  MIC combine: 2 µg/mL
HA MRSA W232; ECG+Kur+Van
  FIC: 0.25
  MIC combine: 2 µg/mL
HA MRSA W232; Table 5
  MIC alone: 8 µg/mL
HA MRSA W235
  MIC alone: 8 µg/mL
HA MRSA W235; ECG with Kur
  FIC: 0.5
  MIC combine: 4 µg/mL
HA MRSA W238; W238
  MIC alone: 8 µg/mL
HA MRSA W238; W238 (gentamicin resistant)
  MIC alone: 8 µg/mL
HA MRSA W238; W238, ECG with Kur
  FIC: 0.5
  MIC combine: 4 µg/mL
HA MRSA W238; W238, ECG+Kur+Gen
  FIC: 0.25
  MIC combine: 2 µg/mL
HA MRSA W238; W238, ECG+Kur+Van
  FIC: 0.25
  MIC combine: 2 µg/mL
HA MRSA W238; W238, ECG+Kur, no Gen
  FIC: 0.5
  MIC combine: 4 µg/mL
HA MRSA W238; W238, Table 5
  MIC alone: 8 µg/mL
HA MRSA W233; W233
  MIC alone: 4 µg/mL
HA MRSA W233; W233 (gentamicin resistant)
  MIC alone: 8 µg/mL
HA MRSA W233; W233, ECG with Kur
  FIC: 0.5
  MIC combine: 2 µg/mL
HA MRSA W233; W233, ECG+Kur+Gen
  FIC: 0.5
  MIC combine: 4 µg/mL
HA MRSA W233; W233, ECG+Kur+Van
  FIC: 0.25
  MIC combine: 2 µg/mL
HA MRSA W233; W233, ECG+Kur, no Gen
  FIC: 1
  MIC combine: 8 µg/mL
HA MRSA W233; W233, Table 5
  MIC alone: 8 µg/mL
CA MRSA W47
  MIC alone: 8 µg/mL
CA MRSA W47; ECG with Kur
  FIC: 0.5
  MIC combine: 4 µg/mL
CA MRSA W47; ECG+Kur+Van
  FIC: 0.25
  MIC combine: 2 µg/mL
CA MRSA W47; Table 5
  MIC alone: 8 µg/mL
MRSA SA-ST239
  MIC alone: 8 µg/mL
MRSA SA-ST239; ECG with Kur
  FIC: 0.5
  MIC combine: 4 µg/mL
MRSA SA-ST239; ECG+Kur+Van
  FIC: 0.125
  MIC combine: 1 µg/mL
MRSA SA-ST239; Table 5
  MIC alone: 8 µg/mL
[1]; 73621 (fusidic acid resistant)
  MIC alone: 8 µg/mL
[1]; ECG+Kur+Fus
  FIC: 0.5
  MIC combine: 4 µg/mL
[1]; ECG+Kur, no Fus
  FIC: 0.5
  MIC combine: 4 µg/mL
[2]; ANT4 (fusidic acid resistant)
  MIC alone: 8 µg/mL
[2]; ECG+Kur+Fus
  FIC: 0.25
  MIC combine: 2 µg/mL
[2]; ECG+Kur, no Fus
  FIC: 0.25
  MIC combine: 2 µg/mL
CA MRSA W103
  MIC alone: 8 µg/mL
CA MRSA W103; ECG with Kur
  FIC: 0.5
  MIC combine: 4 µg/mL
[3]; 96591 (fusidic acid resistant), listed as Kur
  MIC alone: 4 µg/mL and 8 µg/mL
[3]; ECG+Kur+Fus
  FIC: 0.5
  MIC combine: 2 µg/mL
[3]; ECG+Kur, no Fus
  FIC: 0.5
  MIC combine: 4 µg/mL
[4]; APH2 (gentamicin resistant)
  MIC alone: 8 µg/mL
[4]; ECG+Kur+Gen
  FIC: 0.25
  MIC combine: 2 µg/mL
[4]; ECG+Kur, no Gen
  FIC: 0.25
  MIC combine: 2 µg/mL
HA MRSA W239
  MIC alone: 8 µg/mL
HA MRSA W239; ECG with Kur
  FIC: 0.5
  MIC combine: 4 µg/mL
HA MRSA W239; ECG+Kur+Van
  FIC: 0.25
  MIC combine: 2 µg/mL
HA MRSA W239; Table 5
  MIC alone: 8 µg/mL
CA MRSA W44
  MIC alone: 8 µg/mL
CA MRSA W44; ECG with Kur
  FIC: 0.25
  MIC combine: 2 µg/mL
CA MRSA W44; ECG+Kur+Van
  FIC: 0.25
  MIC combine: 2 µg/mL
CA MRSA W44; Table 5
  MIC alone: 8 µg/mL
